This series addresses T1, hERG channel (Homo sapiens, UniProt Q12809).
T1 construct: expressed in transfected cells
As to the kind of experiment: hERG channel inhibition assay (patch-clamp, CHO hERG cells). In kind it is cell-based. To be noted: whole-cell patch-clamp; for IC20: human, CHO cells stably expressing hERG. As to the method: hERG Channel Inhibition Assay
The hERG K^+ channels were cloned in humans and stably expressed in a CHO (Chinese hamster ovary) cell line. CHOhERG cells were used for patch-clamp (voltage-clamp, whole-cell) experiments. Cells were stimulated by a voltage pattern to activate hERG channels and conduct IKhERG currents (rapid delayed outward rectifier potassium current of the hERG channel). After the cells were stabilized for a few minutes, the amplitude and kinetics of IKhERG were recorded at a stimulation frequency of 0.1 Hz (6 bpm). Thereafter, the test compound was added to the preparation at increasing concentrations. For each concentration, an attempt was made to reach a steady-state effect, usually, this was achieved within 3-10 min at which time the next highest concentration was applied. The amplitude and kinetics of IKhERG are recorded in each concentration of the drug which were compared to the control values (taken as 100%). (references: Redfern W S, Carlsson L, Davis A S, Lynch W G, MacKenzie I, Palethorpe S, Siegl P K, Strang I, Sullivan A T, Wallis R, Camm A J, Hammond T G. 2003; Relationships between preclinical cardiac electrophysiology, clinical QT interval prolongation and torsade de pointes for a broad range of drugs: evidence for a provisional safety margin in drug development. Cardiovasc. Res. 58:32-45, Sanguinetti M C, Tristani-Firouzi M. 2006; hERG potassium channels and cardiac arrhythmia. Nature 440:463-469, Webster R, Leishman D, Walker D. 2002; Towards a drug concentration effect relationship for QT prolongation and torsades de pointes. Curr. Opin. Drug Discov. Devel. 5:116-26).

T1 sequence (Q12809 whole entry): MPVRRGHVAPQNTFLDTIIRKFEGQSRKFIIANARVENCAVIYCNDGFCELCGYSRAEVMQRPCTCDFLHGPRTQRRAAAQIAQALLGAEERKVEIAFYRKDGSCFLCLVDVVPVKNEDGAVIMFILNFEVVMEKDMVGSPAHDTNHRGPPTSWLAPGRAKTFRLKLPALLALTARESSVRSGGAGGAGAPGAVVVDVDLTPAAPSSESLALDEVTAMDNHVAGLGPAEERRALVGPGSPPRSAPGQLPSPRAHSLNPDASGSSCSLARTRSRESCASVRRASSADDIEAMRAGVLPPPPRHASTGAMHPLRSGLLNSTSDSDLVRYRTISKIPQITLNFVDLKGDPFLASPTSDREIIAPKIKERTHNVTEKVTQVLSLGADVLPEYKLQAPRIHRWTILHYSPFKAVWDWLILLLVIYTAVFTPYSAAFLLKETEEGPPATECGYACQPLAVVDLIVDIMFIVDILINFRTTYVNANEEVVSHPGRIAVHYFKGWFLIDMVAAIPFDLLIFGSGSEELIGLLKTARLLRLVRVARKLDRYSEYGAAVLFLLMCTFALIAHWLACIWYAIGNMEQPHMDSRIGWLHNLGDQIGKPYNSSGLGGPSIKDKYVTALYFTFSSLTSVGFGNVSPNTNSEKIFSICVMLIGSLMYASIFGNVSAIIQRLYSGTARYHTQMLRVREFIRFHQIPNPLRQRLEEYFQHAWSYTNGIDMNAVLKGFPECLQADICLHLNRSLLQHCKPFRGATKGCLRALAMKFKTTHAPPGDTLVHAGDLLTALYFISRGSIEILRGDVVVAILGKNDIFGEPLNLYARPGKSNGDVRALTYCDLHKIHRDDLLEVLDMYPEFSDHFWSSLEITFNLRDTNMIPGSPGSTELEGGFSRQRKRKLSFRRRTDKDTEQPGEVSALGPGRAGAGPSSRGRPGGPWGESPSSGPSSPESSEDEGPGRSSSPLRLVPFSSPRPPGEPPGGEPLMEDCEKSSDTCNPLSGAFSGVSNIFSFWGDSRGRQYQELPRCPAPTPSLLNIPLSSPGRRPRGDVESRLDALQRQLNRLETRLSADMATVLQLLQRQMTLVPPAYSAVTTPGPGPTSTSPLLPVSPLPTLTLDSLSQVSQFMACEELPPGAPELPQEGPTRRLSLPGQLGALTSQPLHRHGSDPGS

The compound `C[C@@H]1CN(c2ccc(C#N)c3ncccc23)C[C@@H]2CCN(Cc3cnc4c(c3)CNCC4)CCN21` [Example 10, 5-[(4R,10aS)-4-methyl-8-(5,6,7,8-tetrahydro-1,6-naphthyridin-3-ylmethyl)-1,3,4,6,7,9,10,10a-octahydropyrazino[1,2-d][1,4]diazepin-2-yl]quinoline-8-carbonitrile] yielded a concentration for an effect of 20% (IC20) greater than 10 µM and a concentration for half-maximal inhibition (IC50) greater than 20 µM.

Consider `C[C@@H]1CN(c2ccc(C#N)c3ncccc23)C[C@@H]2CCN(Cc3cnc(N4CCNCC4)cn3)CCN21` [Example 15, 5-[(4R,10aS)-4-methyl-8-[(5-piperazin-1-ylpyrazin-2-yl)methyl]-1,3,4,6,7,9,10,10a-octahydropyrazino[1,2-d][1,4]diazepin-2-yl]quinoline-8-carbonitrile], for which the IC20 was greater than 10 µM and the half-maximal inhibitory concentration (IC50) is greater than 20 µM.

`C[C@@H]1CN(c2ccc(C#N)c3ncccc23)C[C@@H]2CCN(c3cc4c(cn3)CNCC4)CCN21` [Example 7, 5-[(4R,10aS)-4-methyl-8-(5,6,7,8-tetrahydro-2,7-naphthyridin-3-yl)-1,3,4,6,7,9,10,10a-octahydropyrazino[1,2-d][1,4]diazepin-2-yl]quinoline-8-carbonitrile] came in with an IC20 greater than 10 µM and an IC50 greater than 20 µM.

What is called IC20 is the concentration needed for an effect of 20%. Usually IC50 stands for the concentration needed to halve the response being measured. A higher IC50 goes with weaker potency in that assay.
